Key:
Assay in all cases: relative viability (nuclei count vs DMSO), 5 days (fraction); higher = more cells survive
Kobe2602 + Trametinib = compound: C1=CC(=CC=C1NC(=S)NNC2=C(C=C(C=C2[N+](=O)[O-])C(F)(F)F)[N+](=O)[O-])F [Kobe2602] + CC(=O)Nc1cccc(-n2c(=O)n(C3CC3)c(=O)c3c(Nc4ccc(I)cc4F)n(C)c(=O)c(C)c32)c1 [Trametinib] (partner 0.02 µM)
In short: (§1)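 Cells from lung cancer lines were seeded into 1536-well plates and, one day later, dosed by pin tool. Treatments were either a single drug or a fixed dose of an anchor drug with five library-drug doses (not always all listed) in √10 steps. After 5 days, nuclei were stained in a one-step fixation (final 0.05% Triton X-100, 1% formaldehyde, 1 ug/ml Hoechst) and counted on 4× images, and relative viability is the treated-to-vehicle nuclei ratio, as the median of duplicate plates.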

Zosuquidar + Phenformin = compound: O[C@@H](COc1cccc2ncccc12)CN1CCN([C@@H]2c3ccccc3[C@@H]3[C@H](c4ccccc42)C3(F)F)CC1 [Zosuquidar] + N=C(N)NC(=N)NCCc1ccccc1 [Phenformin] (partner 250 µM)
In short: as §1

Zosuquidar + Olaparib = compound: O[C@@H](COc1cccc2ncccc12)CN1CCN([C@@H]2c3ccccc3[C@@H]3[C@H](c4ccccc42)C3(F)F)CC1 [Zosuquidar] + O=C(c1cc(Cc2n[nH]c(=O)c3ccccc23)ccc1F)N1CCN(C(=O)C2CC2)CC1 [Olaparib] (partner 8 µM)
In short: as §1

Zosuquidar + Navitoclax = compound: O[C@@H](COc1cccc2ncccc12)CN1CCN([C@@H]2c3ccccc3[C@@H]3[C@H](c4ccccc42)C3(F)F)CC1 [Zosuquidar] + CC1(C)CCC(c2ccc(Cl)cc2)=C(CN2CCN(c3ccc(C(=O)NS(=O)(=O)c4ccc(N[C@H](CCN5CCOCC5)CSc5ccccc5)c(S(=O)(=O)C(F)(F)F)c4)cc3)CC2)C1 [Navitoclax] (partner 0.5 µM)
In short: as §1

Cell Line	relative viability (Kobe2602 + Trametinib; first compound 0.2 µM)	relative viability (Kobe2602 + Trametinib; first compound 0.6325 µM)	relative viability (Kobe2602 + Trametinib; first compound 2 µM)	relative viability (Kobe2602 + Trametinib; first compound 6.325 µM)	relative viability (Kobe2602 + Trametinib; first compound 20 µM)	relative viability (Zosuquidar + Phenformin; first compound 0.01 µM)	relative viability (Zosuquidar + Phenformin; first compound 0.03162 µM)	relative viability (Zosuquidar + Phenformin; first compound 0.1 µM)	relative viability (Zosuquidar + Phenformin; first compound 0.3162 µM)	relative viability (Zosuquidar + Phenformin; first compound 1 µM)	relative viability (Zosuquidar + Olaparib; first compound 0.01 µM)	relative viability (Zosuquidar + Olaparib; first compound 0.03162 µM)	relative viability (Zosuquidar + Olaparib; first compound 0.1 µM)	relative viability (Zosuquidar + Olaparib; first compound 0.3162 µM)	relative viability (Zosuquidar + Olaparib; first compound 1 µM)	relative viability (Zosuquidar + Navitoclax; first compound 0.01 µM)	relative viability (Zosuquidar + Navitoclax; first compound 0.03162 µM)	relative viability (Zosuquidar + Navitoclax; first compound 0.1 µM)	relative viability (Zosuquidar + Navitoclax; first compound 0.3162 µM)	relative viability (Zosuquidar + Navitoclax; first compound 1 µM)
NCI-H1650	0.724	0.525	0.59	0.536	0.586	0.391	0.321	0.383	0.443	0.353	0.95	0.812	0.725	0.714	0.742	1.12	1.11	1.05	1.23	1.21
NCI-H1651	0.822	0.827	0.847	0.87	0.875	0.314	0.343	0.282	0.401	0.307	0.181	0.194	0.169	0.2	0.179	0.949	0.987	1.05	0.977	1.01
NCI-H1666	0.824	0.836	0.766	0.89	0.808	0.542	0.577	0.571	0.584	0.521	0.75	0.795	0.73	0.815	0.787	0.906	1	1.03	1.02	0.818
NCI-H1734	0.618	0.77	0.664	0.711	0.695	0.395	0.372	0.407	0.466	0.385	0.614	0.674	0.613	0.655	0.646	0.922	0.925	0.754	0.862	0.787
NCI-H1755	0.825	0.728	0.779	0.766	0.726	0.425	0.621	0.489	0.624	0.589	0.873	0.88	0.778	0.92	0.867	0.988	1.01	0.954	1.07	0.949
NCI-H1792	0.445	0.446	0.401	0.564	0.366	0.35	0.287	0.279	0.31	0.295	0.334	0.424	0.339	0.422	0.396	0.603	0.621	0.53	0.635	0.359
NCI-H1793	0.437	0.459	0.449	0.394	0.399	0.387	0.346	–	0.469	0.359	0.971	–	–	1.01	0.758	0.407	0.444	–	0.499	0.396
NCI-H1915	0.291	0.312	0.292	0.312	0.346	0.377	0.386	0.347	0.38	0.37	0.267	0.261	0.268	0.265	0.291	0.756	0.79	0.796	0.802	0.743
NCI-H1944	0.418	0.409	0.404	0.442	0.423	0.19	0.192	0.196	0.225	0.196	0.404	0.407	0.384	0.516	0.385	1.06	1.02	1	1.18	0.945
NCI-H1975	0.332	0.333	0.328	0.29	0.352	0.397	0.378	0.417	0.42	0.399	0.722	0.753	0.784	0.734	0.866	1.13	1.14	1.17	1.14	0.993
NCI-H1993	0.516	0.489	0.429	0.507	0.476	0.422	0.596	0.438	0.476	0.533	0.949	1.01	–	1.19	1.05	0.966	0.978	0.896	1.1	0.802
NCI-H2009	0.297	0.373	0.332	0.305	0.274	0.503	0.47	0.481	0.518	0.498	0.631	0.611	0.684	0.639	0.65	1.19	1.12	1.13	1.1	1.14
NCI-H2023	0.469	0.608	0.592	0.444	0.201	0.387	0.426	0.385	0.408	0.396	0.498	0.549	0.52	0.485	0.477	0.958	1	0.916	1.05	0.92
NCI-H2085	0.614	0.516	0.491	0.409	0.514	0.736	0.682	0.479	0.877	0.69	0.706	0.809	–	0.736	0.751	1.13	1.06	1.06	1.2	1.14

From the supplement of paper PMC10307832
